Publication PMC8556396, “Statin-mediated disruption of Rho GTPase prenylation and activity inhibits respiratory syncytial virus infection” (Communications Biology, 2021)
Several values for one entry are separate records, joined by “and”; a condition that tells them apart may be missing. Identical values can stand only once. Entries after “also recorded” stand apart in the source; their conditions may differ.

Columns and labels:
[1] = tested on: RSV-GFP; assay: RSV-GFP infection of HEp-2 cells, automated imaging, dose-response; assay type: cell-based, Respiratory syncytial virus; conditions: for EC50: HEp-2, 2 h, HEp-2, RSV-GFP MOI 0.5, treated 2 h post-viral exposure; for inhibition at 0.75 µM: read-out: RSV-GFP inhibition (%), log Conc (uM) -0.12494; for inhibition at 0.5 µM: read-out: RSV-GFP inhibition (%), log Conc (uM) -0.30103; for inhibition at 0.05 µM: read-out: RSV-GFP inhibition (%), log Conc (uM) -1.30103; for RSV-GFP inhibition (%): 48 h p.i.; for inhibition at 0.25 µM: read-out: RSV-GFP inhibition (%), log Conc (uM) -0.60206; for inhibition at 0.1 µM: read-out: RSV-GFP inhibition (%), log Conc (uM) -1; for inhibition at 0.01 µM: read-out: RSV-GFP inhibition (%), log Conc (uM) -2
Protocol: HEp-2 cells were seeded to black, flat, microclear-bottom 96-well plates (655096, Greiner Bio-One) at a density of 5000 cells per well and incubated at 37 °C/5% CO2 overnight. The following morning, cells were washed twice with serum-free EMEM and treated with RSV-GFP (MOI 0.5) in a minimal volume of serum-free media for 90 min under frequent agitation. Unbound virus was then removed and replaced with fresh serum-containing EMEM. All drug additions were performed 2 h post-viral exposure, unless otherwise stated. Nuclei were stained with Hoechst 33342 (H3570, Thermo Fisher Scientific) (at a final concentration of 1 µg/mL) 48 h p.i. and imaging was performed using the Cellomics ArrayScan VTI HCS Reader at ×10 magnification (SPARC BioCentre, The Hospital for Sick Children, Toronto, ON).
Automated quantification of infection rates from fluorescent images were performed in CellProfiler (v2.2.0)[86]. Major steps in the image analysis pipeline included: (1) background subtraction and smoothing, (2) segmentation of nuclei, (3) segmentation of GFP-fluorescent area, (4) object masking, and (5) measurement of nuclear number, size, and intensity. Infection rate was quantified from the ratio of nuclei within GFP-fluorescent area to the total number of nuclei (Fig. 1b). This method of analysis accounts for in vitro syncytium formation induced by RSV, whereby a single infected cell may arise from the fusion of multiple cells. Mean nuclear fluorescent intensity and size was quantified as a measure of cell viability. […]

[2] = tested on: RSV-GFP; assay: microbe, parasite or virus in culture; assay type: cell-based, Respiratory syncytial virus; conditions: for inhibition at 10 µM: human respiratory syncytial virus, HEp-2, read-out: RSV-GFP inhibition (%); for RSV-GFP inhibition (%): 10.0 µM, HEp-2, RSV-GFP MOI 0.5, single replicate
Protocol: The following morning, cells were washed twice with serum-free EMEM and treated with RSV-GFP (MOI 0.5) in a minimal volume of serum-free media for 90 min under frequent agitation. Unbound virus was then removed and replaced with fresh serum-containing EMEM. All drug additions were performed 2 h post-viral exposure, unless otherwise stated.
Automated quantification of infection rates from fluorescent images were performed in CellProfiler (v2.2.0)[86]. Major steps in the image analysis pipeline included: (1) background subtraction and smoothing, (2) segmentation of nuclei, (3) segmentation of GFP-fluorescent area, (4) object masking, and (5) measurement of nuclear number, size, and intensity. Infection rate was quantified from the ratio of nuclei within GFP-fluorescent area to the total number of nuclei (Fig. 1b). This method of analysis accounts for in vitro syncytium formation induced by RSV, whereby a single infected cell may arise from the fusion of multiple cells. Mean nuclear fluorescent intensity and size was quantified as a measure of cell viability.
The MicroSource […] Collection (Discovery Systems Inc.) consisting of 2400 compounds was screened using the previously outlined RSV-GFP infection assay protocol. Robot-assisted addition of drugs was performed within 1 h of RSV-GFP infection and infection rates were assayed 48 h p.i. Drugs were provided as 10 mM stocks in DMSO and serial diluted to a final concentration of 10 µM, resulting in a final DMSO concentration of 0.1% v/v. […] Hits were selected based on the criteria that: (a) the tested drug caused a >50% reduction in infection rate and (b) was not overtly cytotoxic (<10% change in mean nuclear intensity relative to DMSO control). Z-factors were calculated on a per-plate basis to monitor assay quality.

[3] = human respiratory syncytial virus
[4] = human respiratory syncytial virus, HEp-2, 48 h, replicate values

O=c1cc(-c2ccccc2)oc2ccc(O)cc12 [6-Hydroxyflavone]
EC50 [1, 3]: 705 nM | inhibition at 0.75 µM [1, 4]: 56.1% | inhibition at 0.5 µM [1, 4]: 36.6% | inhibition at 0.05 µM [1, 4]: 11.4% | inhibition at 10 µM [2]: 74.1%

CNc1nc(C)c(-c2nc(Nc3cccc(S(N)(=O)=O)c3)ncc2F)s1 [CDKI-73]
effect on RSV-GFP infection rate ([1]; CDKI-73 0.5 µM or 1.0 µM): did not reduce infection rate; also recorded: did not reduce RSV-GFP infection rates | RSV-GFP inhibition (%) ([1]; CDKI-73 0.5 uM, replicate values): 15.9529% and 3.2849% and 2.901% and 0.6729% | RSV-GFP inhibition (%) ([1]; CDKI-73 1 uM, replicate values): 5.404% and 7.553% and -1.2228% and 1.11%

C[C@H]1O[C@@H](O[C@H]2[C@@H](O)C[C@H](O[C@H]3[C@@H](O)C[C@H](O[C@H]4CC[C@@]5(C)[C@H](CC[C@@H]6[C@@H]5CC[C@]5(C)[C@@H](C7=CC(=O)OC7)CC[C@]65O)C4)O[C@@H]3C)O[C@@H]2C)C[C@H](O)[C@@H]1O [Digitoxin]
EC50 [1, 3]: 11 nM | inhibition at 0.5 µM [1, 4]: 99.9% | inhibition at 0.25 µM [1, 4]: 98.6% | inhibition at […] ([1]; human respiratory syncytial virus, HEp-2, 48 h, read-out: RSV-GFP inhibition (%), log Conc (uM) -0.75696, replicate values): 99.8% | inhibition at 0.1 µM [1, 4]: 78.3% | inhibition at 0.05 µM [1, 4]: 73% | inhibition at 0.04 µM ([1]; human respiratory syncytial virus, HEp-2, 48 h, read-out: RSV-GFP inhibition (%), log Conc (uM) -1.39794, replicate values): 78.7% | inhibition at 0.03 µM ([1]; human respiratory syncytial virus, HEp-2, 48 h, read-out: RSV-GFP inhibition (%), log Conc (uM) -1.52288, replicate values): 82% | inhibition at 0.02 µM ([1]; human respiratory syncytial virus, HEp-2, 48 h, read-out: RSV-GFP inhibition (%), log Conc (uM) -1.69897, replicate values): 68.5% | inhibition at 0.01 µM [1, 4]: 55% | inhibition at 10 µM [2]: 98.8%

C[C@H]1O[C@@H](O[C@H]2[C@@H](O)C[C@H](O[C@H]3[C@@H](O)C[C@H](O[C@H]4CC[C@@]5(C)[C@H](CC[C@@H]6[C@@H]5C[C@@H](O)[C@]5(C)[C@@H](C7=CC(=O)OC7)CC[C@]65O)C4)O[C@@H]3C)O[C@@H]2C)C[C@H](O)[C@@H]1O [Digoxin]
EC50 [1, 3]: 26 nM | inhibition at 0.75 µM [1, 4]: 99.9% | inhibition at 0.5 µM [1, 4]: 100% | inhibition at 0.25 µM [1, 4]: 86.5% | inhibition at 0.1 µM [1, 4]: 85.5% | inhibition at 0.05 µM [1, 4]: 68.3% | inhibition at 0.01 µM [1, 4]: 25.2% | inhibition at 0.0075 µM ([1]; human respiratory syncytial virus, HEp-2, 48 h, read-out: RSV-GFP inhibition (%), log Conc (uM) -2.12494, replicate values): 18% | inhibition at 0.001 µM ([1]; human respiratory syncytial virus, HEp-2, 48 h, read-out: RSV-GFP inhibition (%), log Conc (uM) -3, replicate values): 9.48% | inhibition at 10 µM [2]: 99.1%

C[C@]12CC[C@@H]3c4ccc(O)cc4CC[C@H]3[C@@H]1CC[C@@H]2O [Estradiol, 17β-Estradiol]
EC50 [1, 3]: 1620 nM | inhibition at 0.5 µM [1, 4]: 7.41% | inhibition at 10 µM [2]: 70.7%

Oc1c(Cl)cc(Cl)c(Cl)c1Cc1c(O)c(Cl)cc(Cl)c1Cl [Hexachlorophene]
inhibition at 10 µM [2]: 83.2%

CCc1c2c(nc3ccc(OC(=O)N4CCC(N5CCCCC5)CC4)cc13)-c1cc3c(c(=O)n1C2)COC(=O)[C@]3(O)CC.Cl [Irinotecan hydrochloride]
RSV-GFP inhibition (%) [2]: 55.56%

CC(=O)O[C@H]1C[C@H](O[C@H]2[C@@H](O)C[C@H](O[C@H]3[C@@H](O)C[C@H](O[C@H]4CC[C@@]5(C)[C@H](CC[C@@H]6[C@@H]5C[C@@H](O)[C@]5(C)[C@@H](C7=CC(=O)OC7)CC[C@]65O)C4)O[C@@H]3C)O[C@@H]2C)O[C@H](C)[C@H]1O[C@@H]1O[C@H](CO)[C@@H](O)[C@H](O)[C@H]1O [Lanatoside C]
inhibition at 10 µM [2]: 100%

CN(C)c1ccc2nc3ccc(=[N+](C)C)cc-3sc2c1 [Methylene blue]
inhibition at 10 µM [2]: 67.8%

CC[C@@]1([C@@H]2O[C@@H]([C@H]3O[C@@](O)(CO)[C@H](C)C[C@@H]3C)C[C@@H]2C)CC[C@H]([C@]2(C)CC[C@]3(C[C@H](O)[C@@H](C)[C@@H]([C@@H](C)[C@@H](OC)[C@H](C)C(=O)O)O3)O2)O1 [Monensin A]
inhibition at 10 µM [2]: 93.9%

COc1c(C)c2c(c(O)c1C/C=C(\C)CCC(=O)OCCN1CCOCC1)C(=O)OC2 [Mycophenolate mofetil]
inhibition at 10 µM [2]: 98.4%

COc1c(C)c2c(c(O)c1C/C=C(\C)CCC(=O)O)C(=O)OC2 [Mycophenolic acid]
inhibition at 10 µM [2]: 98.8%

CCCCCCCCCc1ccc(OCCOCCOCCOCCOCCOCCOCCOCCOCCO)cc1 [Nonoxynol-9]
inhibition at 10 µM [2]: 69.2%

C#C[C@]1(OC(C)=O)CC[C@H]2[C@@H]3CCC4=CC(=O)CC[C@@H]4[C@H]3CC[C@@]21C [Norethindrone acetate]
inhibition at 10 µM [2]: 54.2%

C#C[C@]1(O)CC[C@H]2[C@@H]3CCC4=C(CCC(=O)C4)[C@H]3CC[C@@]21C [Norethynodrel]
inhibition at 10 µM [2]: 75.4%

C[C@@H]1O[C@@H](O[C@H]2C[C@@H](O)[C@]3(CO)[C@H]4[C@H](O)C[C@]5(C)[C@@H](C6=CC(=O)OC6)CC[C@]5(O)[C@@H]4CC[C@]3(O)C2)[C@H](O)[C@H](O)[C@H]1O [Ouabain]
inhibition at 10 µM [2]: 100%

O=C1[O][Pt]2([NH][C@@H]3CCCC[C@H]3[NH]2)[O]C1=O [Oxaliplatin]
RSV-GFP inhibition (%) [2]: 88.7%

N=C(N)c1ccc(OCCCCCOc2ccc(C(=N)N)cc2)cc1 [Pentamidine isethionate]
inhibition at 10 µM [2]: 60.2%

CO[C@H]1[C@H](O)[C@H](O[C@H]2CC[C@@]3(C=O)[C@H](CC[C@@H]4[C@@H]3CC[C@]3(C)[C@@H](C5=CC(=O)OC5)CC[C@]43O)C2)O[C@@H](C)[C@@H]1O [Peruvoside]
inhibition at 10 µM [2]: 98.2%

O=C(O)C[C@H](O)C[C@H](O)/C=C/c1c(C2CC2)nc2ccccc2c1-c1ccc(F)cc1 [Pitavastatin calcium]
RSV inhibition in the screen ([2]; HEp-2, RSV-GFP): inhibit RSV at low micromolar concentrations | inhibition at 10 µM [2]: 63.4%

COC(=O)[C@]1(C)CC[C@]2(C)CC[C@]3(C)C4=CC=C5C(=CC(=O)C(O)=C5C)[C@]4(C)CC[C@@]3(C)[C@@H]2C1 [Pristimerin]
inhibition at 10 µM [2]: 74.1%

CC(=O)[C@H]1CC[C@H]2[C@@H]3CCC4=CC(=O)CC[C@]4(C)[C@H]3CC[C@]12C [Progesterone]
inhibition at 10 µM [2]: 50.5%

C[C@@H]1O[C@@H](O[C@@H]2C=C3CC[C@@H]4[C@H](CC[C@]5(C)[C@@H](c6ccc(=O)oc6)CC[C@]45O)[C@@]3(C)CC2)[C@H](O)[C@H](O)[C@H]1O [Proscillaridin]
inhibition at 10 µM [2]: 81.6%

CC[C@@H](C(=O)[C@@H](C)[C@@H](O)[C@H](C)[C@@H]1O[C@@H]([C@@H](CC)C(=O)O)CC[C@@H]1C)[C@H]1O[C@]2(C=C[C@@H](O)[C@]3(CC[C@@](C)([C@H]4CC[C@](O)(CC)[C@H](C)O4)O3)O2)[C@H](C)C[C@@H]1C [Salinomycin, sodium]
RSV-GFP inhibition (%) [2]: 96.45%

C[C@]12CC[C@H]3[C@@H](CC[C@]4(O)C[C@@H](O)CC[C@]34C=O)[C@@]1(O)CC[C@@H]2C1=CC(=O)OC1 [Strophanthidin]
inhibition at 10 µM [2]: 90.4%

CC(=O)OC1CCC23C(=O)OC45CCC(C6=CC(=O)OC6)C4(C)CCC2C5CCC3(O)C1 (stereo not drawn) [Strophanthidinic acid lactone acetate]
RSV-GFP inhibition (%) [2]: 82.33%

CCC(=O)O[C@H]1CC[C@H]2[C@@H]3CCC4=CC(=O)CC[C@]4(C)[C@H]3CC[C@]12C [Testosterone propionate]
inhibition at 10 µM [2]: 84.7%

Antimycin A1
RSV-GFP inhibition (%) [2]: 79.49%

Benzalkonium chloride
RSV-GFP inhibition (%) [2]: 77.34%
